According to patent publication US12377092B2, “Polycomb inhibitors and uses thereof” (FONDAZIONE ISTITUTO FIRC DI ONCOLOGIA MOLECOLARE (IFOM), priority 2017, dated 2025):
“Also recorded” adds a separate entry of the source.

Tests used:
[1] = test system: EndMT markers (Klf4, Sca1 and Fsp1); test: Western blot analysis of EndMT markers, wild type and CCM3 knock out immortalized lung endothelial cells; type: cell-based, mouse; details: 72 hours
Method: (§1) Cells were seeded 6.3×10^4 cells/cm^2. The day after, PTC209 and UNC1999 were added to the confluent cells. Drugs were left for one or three days depending on the aim of the experiment. Final concentrations used for the two drugs were: 1 uM PTC209 and 5 uM UNC1999.
(§2) Confluent cells were lysed with boiling modified Laemi sample Buffer (2% SDS, 20% glycerol, and 125 mM Tris-HCl, pH 6.8). Lysates were incubated for 10 minutes at 100° C. to allow proteins denaturation. Protein concentration was estimated using the BCA Protein Assay Kit (Pierce). Equal amount of proteins was loaded on a gel, separated by SDS-PAGE and transferred to a Protran Nitrocellulose Membrane (Whatman) 0.2 um pores. The membranes were blocked for 1 hour at RT in Tris Buffered Saline (TBS: NaCl 150 mM, Tris-HCl 10 mM pH 7.4) plus 0.1% Tween-20 containing 5% BSA or milk. The membranes were incubated with primary antibodies diluted in TBST (TBS plus 0.1% Tween-20) containing 5% of either BSA or milk overnight at 4° C. Next, membranes were rinsed three times with TBST for 5 minutes each and incubated for 45 minutes at RT with HRP-linked secondary antibodies diluted in TBST containing 5% BSA/milk. Membranes were rinsed three times with TBST for 5 minutes each and specific bindings were detected by enhanced chemiluminescence (ECL) system (Amersham Bioscience) using ChemiDoc XRS gel imaging system (Bio-Rad).
(§3) Wild type and CCM3 knock out cells were treated with either PTC209 or DMSO starting from the day after seeding, when cells were confluent. For this experiment cells were lysed for western blot and real-time analysis after 72 hours of treatment to check a long-term effect of PTC209.
(§4) To perform these experiments, immortalized lung endothelial cells both wild type and CCM3 knock out were treated, with the same experimental strategy used for PTC209, with UNC1999 for 72 hours and subsequently lysed for western blot and real time analysis. UNC1999 was used in its specific optimal concentration, which was different to PTC209. As control DMSO was given to the cells in a volume equal to the volume of DMSO in which UNC1999 was previously dissolved to rich the optimal concentration.
(§5) Briefly, wild type and CCM3 knock out cells were treated with either PTC209, UNC1999 or a combination of the two. PTC209 and UNC1999 were administrated at the same concentration used for the single treatment and DMSO was given as control in a volume equal to the sum of volumes of DMSO in which UNC1999 and PTC209 were previously dissolved.

[2] = test system: VE-cadherin; test: Western blot analysis of VE-cadherin, CCM3 knock out cells; type: cell-based, mouse; details: 72 hours
Method: as §1
as §2, with “The membranes were incubated with primary antibodies diluted in TBST (TBS plus 0.1% Tween-20) containing 5% of either BSA or milk overnight at 4° C. Next, membranes were rinsed three times with TBST for 5 minutes each and incubated for 45 minutes at RT with HRP-linked secondary antibodies diluted in TBST containing 5% BSA/milk.” left out
Experiment with combined PTC209 and UNC1999 treatments was repeated with the same experimental conditions described before and junction organisation was analysed through VE-cadherin staining and protein expression analysis (FIG. 19).

[3] = test system: EndMT markers (Klf4, Sca1 and Fsp1); test: Real time (RT-PCR) analysis of EndMT markers, wild type and CCM3 knock out immortalized lung endothelial cells; type: cell-based, mouse; details: 72 hours
Method: as §1
RNA extraction was performed both with (A) RNeasy kits (Promega) or (B) RNAeasy Mini Kit (QIAGEN). The latter allows also the extraction of proteins from the same sample. The RNA (500 ng) was reverse transcribed with random hexamers (High Capacity cDNA Archive kits; Applied Biosystems) in a final volume of 30 uL. Reaction were made with a thermocycler (Eppendorf) 10 min at 25° C. followed by 2 hours at 37° C. cDNA (5 ng) was amplified in triplicate in a reaction volume of 15 uL using TaqMan Gene Expression Assays (Applied Biosystems) in a ABI/Prism 7900 HT using a pre PCR step of 10 min at 95° C., followed by 40 cycles of 15 seconds at 95° C. and 60 seconds at 60° C. For each sample, the expression level was determined with the comparative threshold cycle (Ct) method, and normalized to the housekeeping genes encoding 18S, glyceraldehyde-3-phosphate dehydrogenase (GAPDH) and hypoxanthine-guanine phosphoribosyltransferase (hprt1). Ct or threshold cycle, represents the PCR cycle at which an increase in reporter fluorescence above a base-line signal can first be detect.
as §3, §4, §5

[4] = test system: PRC2; details: Konze et al., 2013; cited from earlier work
[5] = CCM3 knock out cells, 1 uM PTC209, 5 uM UNC1999, vs DMSO
[6] = wild type cells (physiological condition), CCM3 model

In the case of CCCc1cc(C)[nH]c(=O)c1CNC(=O)c1cc(-c2ccc(N3CCN(C(C)C)CC3)nc2)cc2c1cnn2C(C)C [UNC1999, N-[(6-methyl-2-oxo-4-propyl-1H-pyridin-3-yl)methyl]-1-propan-2-yl-6-[6-(4-propan-2-ylpiperazin-1-yl)pyridin-3-yl]indazole-4-carboxamide], the “EndMT markers (Klf4, Sca1, Fsp1) protein expression (western blot)” value [1, 5] is reported as “downregulation; also recorded: inhibition of the upregulation”, the “downregulation of EndMT protein and gene expressions compared with PTC209” value ([1]; CCM3 knock out cells, 5 uM UNC1999, western blot and real time) is reported as “not as strong as the downregulation observed upon administration of PTC209” and the “Klf4 protein (western blot)” value [1, 6] is reported as “not influenced”. For the same compound, the “VE-cadherin protein expression level (western blot)” value [2] was “did not show any rescue”, the “Klf4, Sca1 and Fsp1 transcripts (real time analysis)” value [3, 5] was “downregulation” and the “Klf4 transcript (real time analysis)” value [3, 6] was “not influenced”. The “Hystone-methyl transferase activity of PRC2” value [4] was “blocked”.
